Source: US20230053688A1, “METHODS TO ALTER LATENCY IN EBV+ MALIGNANCIES” (Cornell University, priority 2020, published 2023)
Counter-ions that a name gives are not always drawn. Like-named read-outs stand apart in the source and are kept apart here.

Test system: LMP1 expression in Kem I cells
Experiment: microbe, parasite or virus in culture
Format: cell-based, EBV
Settings: for fold induction at 2.5 µM: human gammaherpesvirus 4, 48 h
[1] = Kem I cells, 2.5 uM, 48 hours, average of replicates 1 and 2
[2] = Kem I cells, 2.5 uM, 48 hours, fold change in LMP1 transcript vs vehicle
[3] = read-out: Average LMP1 Fold Increase, Kem I cells, 2.5 uM, 48 hours, average of replicates 1 and 2
[4] = read-out: Replicate 1-LMP1 Fold Increase, Kem I cells, 2.5 uM, 48 hours, fold change in LMP1 transcript vs vehicle
[5] = read-out: Replicate 2-LMP1 Fold Increase, Kem I cells, 2.5 uM, 48 hours, fold change in LMP1 transcript vs vehicle

| SMILES | Average LMP1 Fold Increase [1] | Replicate 1-LMP1 Fold Increase [2] | Replicate 2-LMP1 Fold Increase [2] | further results |
| --- | --- | --- | --- | --- |
| CC(C)N(CC[C@H](c1ccccc1)c1cc(CO)ccc1O)C(C)C | 0.36 | 0.49 | 0.23 | – |
| O=[N+]([O-])C=Cc1ccc2c(c1)OCO2 | 1.11 | 0.54 | 1.68 | – |
| O=C(O)C(Cc1ccccc1[N+](=O)[O-])=NNc1nc(-c2ccc(Cl)c(Cl)c2)cs1 (mixture of isomers) [4EGI-1] | 0.64 | 0.41 | 0.86 | – |
| Fc1cc(F)c2c(c1)[C@H]1C=CC[C@H]1C(c1cccnc1)N2 (mixture of isomers) [Golgicide A] | 0.27 | 0.34 | 0.19 | – |
| C[C@H]1COC2(CCN(c3nc(=O)c4cc(C(F)(F)F)cc([N+](=O)[O-])c4s3)CC2)O1 (racemic) [BTZ043 Racemate] | 0.64 | 0.62 | 0.67 | – |
| Cl.N[C@@H]1C[C@H]1c1ccccc1 (racemic) [Tranylcypromine (2-PCPA) HCl] | – | – | – | Average LMP1 Fold Increase: 0.33 fold; Replicate 1-LMP1 Fold Increase: 0.22 fold; Replicate 2-LMP1 Fold Increase: 0.45 fold |
| COc1cc2c(cc1O)CC[C@@H]1[C@@H]2CC[C@]2(C)[C@@H](O)CC[C@@H]12 [2-Methoxyestradiol (2-MeOE2)] | 1.00 | 0.65 | 1.34 | – |
| O=C(O)c1ccc(N2C(=O)/C(=C\c3ccc(-c4ccc([N+](=O)[O-])cc4)o3)C=C2c2ccccc2)cc1 [4E1RCat] | 0.71 | 0.30 | 1.12 | – |
| C=CCNC1=C2C[C@@H](C)C[C@H](OC)[C@H](O)[C@@H](C)/C=C(\C)[C@H](OC(N)=O)[C@@H](OC)/C=C\C=C(/C)C(=O)NC(=CC1=O)C2=O [17-AAG (Tanespimycin)] | 0.45 | 0.36 | 0.55 | – |
| CN1CCc2cc3c(cc2[C@H]1[C@@H]1OC(=O)c2c1ccc1c2OCO1)OCO3 [(+)-Bicuculline] | 0.89 | 0.86 | 0.93 | – |
| C[C@H](Oc1cc(-c2cnn(C3CCNCC3)c2)cnc1N)c1c(Cl)ccc(F)c1Cl [(S)-crizotinib] | 0.70 | 0.57 | 0.84 | – |
| C=C1C(=O)O[C@H]2[C@H]1CC/C(C)=C/CC[C@@]1(C)O[C@@H]21 [(−)-Parthenolide] | 0.57 | 0.26 | 0.87 | – |
| N#Cc1c(O)c2c(-c3ccc(-c4ccccc4O)cc3)csc2[nH]c1=O [A-769662] | 0.40 | 0.41 | 0.39 | – |
| CC1(C)CCC(CN2CCN(c3ccc(C(=O)NS(=O)(=O)c4ccc(NCC5CCOCC5)c([N+](=O)[O-])c4)c(Oc4cnc5[nH]ccc5c4)c3)CC2)=C(c2ccc(Cl)cc2)C1 [ABT-199 (GDC-0199)] | 0.75 | 0.51 | 0.98 | – |
| CC1(C)CCC(c2ccc(Cl)cc2)=C(CN2CCN(c3ccc(C(=O)NS(=O)(=O)c4ccc(N[C@H](CCN5CCOCC5)CSc5ccccc5)c(S(=O)(=O)C(F)(F)F)c4)cc3)CC2)C1 [ABT-263 (Navitoclax)] | 0.27 | 0.21 | 0.33 | – |
| CCN(CC)C(=O)c1ccc(C2=CC3(CCNCC3)Oc3cccc(O)c32)cc1 [ADL5859 HCl] | – | – | – | fold induction at 2.5 µM [3]: 1.02; fold induction at 2.5 µM [4]: 0.54; fold induction at 2.5 µM [5]: 1.5 |
| O=C(c1ccc(F)cc1)N1CCC[C@H](c2nc(-c3ccc(F)cc3)no2)C1 [ADX-47273] | 0.58 | 0.81 | 0.35 | – |
| CN(C)Cc1ccc(-c2nc3cccc4c3n2CCNC4=O)cc1 [AG-14361] | 0.30 | 0.39 | 0.22 | – |
| Cc1ccccc1C(C(=O)NC1CCCCC1)N(C(=O)Cn1ccnc1C)c1cccc(F)c1 (stereo not drawn) [AGI-5198] | – | – | – | fold induction at 2.5 µM [3]: 0.82; fold induction at 2.5 µM [4]: 0.71; fold induction at 2.5 µM [5]: 0.93 |
| O=C(Nc1cccc(C(F)(F)F)c1)Nc1cc(S(=O)(=O)NC2CC2)ccc1-c1ccsc1 [AGI-6780] | – | – | – | fold induction at 2.5 µM [3]: 1.51; fold induction at 2.5 µM [4]: 0.42; fold induction at 2.5 µM [5]: 2.6 |
| CN1CCCCC1Cn1cc(C(=O)c2cc([N+](=O)[O-])ccc2I)c2ccccc21 (stereo not drawn) [AM1241] | 0.79 | 1.01 | 0.56 | – |
| CC(=O)Nc1nc2c(Oc3cc(-c4ccc(C(F)(F)F)cc4)ncn3)cccc2s1 [AMG-517] | – | – | – | fold induction at 2.5 µM [3]: 0.52; fold induction at 2.5 µM [4]: 0.56; fold induction at 2.5 µM [5]: 0.48 |
| COc1cc(N2CCC(N3CCN(C)CC3)CC2)ccc1Nc1ncc(Cl)c(Nc2ccccc2P(C)(C)=O)n1 [AP26113] | – | – | – | fold induction at 2.5 µM [3]: 0.92; fold induction at 2.5 µM [4]: 1.07; fold induction at 2.5 µM [5]: 0.77 |

| SMILES | Average LMP1 Fold Increase [1] | Replicate 1-LMP1 Fold Increase [2] | Replicate 2-LMP1 Fold Increase [2] | further results |
| --- | --- | --- | --- | --- |
| O=C1NC(=O)/C(=C/c2ccc(-c3ccc(F)cc3O)o2)S1 [AS-252424] | 0.53 | 0.57 | 0.49 | – |
| Cc1cc2c(C(C)C)c(O)c(O)c(C=O)c2c(O)c1-c1c(C)cc2c(C(C)C)c(O)c(O)c(C=O)c2c1O [AT101] | – | – | – | fold induction at 2.5 µM [3]: 1.04; fold induction at 2.5 µM [4]: 0.51; fold induction at 2.5 µM [5]: 1.58 |
| CCNC(=O)c1noc(-c2cc(C(C)C)c(O)cc2O)c1-c1ccc(CN2CCOCC2)cc1 [AUY922 (NVP-AUY922)] | 1.29 | 1.62 | 0.96 | – |
| C=CC(=O)Nc1cccc(Nc2nc(Nc3ccc(OCCOC)cc3)ncc2F)c1 [AVL-292] | 0.52 | 0.48 | 0.56 | – |
| C[C@@H]1COCCN1c1cc(C2(S(C)(=O)=O)CC2)nc(-c2cccc3[nH]ccc23)n1 [AZ20] | 1.39 | 1.56 | 1.22 | – |
| COc1cc(N2CCN(C)CC2)ccc1Nc1nccc(-c2cn(C)c3cnccc23)n1 [AZ191] | 0.37 | 0.50 | 0.24 | – |
| COc1cc(OC2CCN(C)CC2)ccc1Nc1ncc2c(n1)n(C1CCCC1)c(=O)n2C [AZ 3146] | 0.61 | 0.66 | 0.57 | – |
| CC(=O)Nc1cccc2c1c(Sc1ccc(Cl)cc1)c(C)n2CC(=O)O [AZD1981] | 0.80 | 1.13 | 0.46 | – |
| COC1CCN(C(=O)c2cc(Cc3n[nH]c(=O)c4ccccc34)ccc2F)CC1 [AZD2461] | 1.00 | 0.50 | 1.51 | – |
| COc1cc(N2CCC(N)CC2)ccc1Nc1ncc(Cl)c(-c2c[nH]c3ccccc23)n1 [AZD3463] | 0.26 | 0.28 | 0.24 | – |
| COc1cc(CCc2cc(NC(=O)c3ccc(N4CC(C)NC(C)C4)cc3)n[nH]2)cc(OC)c1 (stereo not drawn) [AZD4547] | 0.13 | 0.11 | 0.15 | – |
| Cc1cc([C@@H](C)Nc2ccccc2C(=O)O)c2nc(N3CCOCC3)cc(=O)n2c1 [AZD6482] | 0.22 | 0.06 | 0.37 | – |
| CN(C)C(=O)c1ccc(S(=O)(=O)c2ccc(NC(=O)[C@@](C)(O)C(F)(F)F)c(Cl)c2)cc1 [AZD7545] | 0.67 | 0.40 | 0.94 | – |
| NC(=O)Nc1cc(-c2cccc(F)c2)sc1C(=O)N[C@H]1CCCNC1 [AZD7762] | 5.84 | 9.74 | 1.94 | – |
| CN(Cc1cnc2nc(N)nc(N)c2n1)c1ccc(C(=O)N[C@@H](CCC(=O)O)C(=O)O)cc1 [Abitrexate (Methotrexate)] | 3.17 | 3.70 | 2.64 | – |
| NC(=O)c1ncn([C@@H]2O[C@H](CO)[C@@H](O)[C@H]2O)c1N [Acadesine] | – | – | – | fold induction at 2.5 µM [3]: 0.58; fold induction at 2.5 µM [4]: 0.57; fold induction at 2.5 µM [5]: 0.59 |
| COc1ccc2cccc(CCNC(C)=O)c2c1 [Agomelatine] | – | – | – | fold induction at 2.5 µM [3]: 0.43; fold induction at 2.5 µM [4]: 0.34; fold induction at 2.5 µM [5]: 0.52 |
| Oc1ncnc2[nH]ncc12 [Allopurinol] | – | – | – | fold induction at 2.5 µM [3]: 0.11; fold induction at 2.5 µM [4]: 0.09; fold induction at 2.5 µM [5]: 0.13 |
| CCOC(=O)[C@H]1O[C@@H]1C(=O)N[C@@H](CC(C)C)C(=O)NCCC(C)C [Aloxistatin] | – | – | – | fold induction at 2.5 µM [3]: 0.11; fold induction at 2.5 µM [4]: 0.1; fold induction at 2.5 µM [5]: 0.12 |
| CCOC(=O)C1=C(COCCN)NC(C)=C(C(=O)OC)C1c1ccccc1Cl (stereo not drawn) [Amlodipine] | – | – | – | fold induction at 2.5 µM [3]: 2.06; fold induction at 2.5 µM [4]: 0.51; fold induction at 2.5 µM [5]: 3.61 |
| COc1cc(F)c(C(C)C)cc1-c1ccc(C(F)(F)F)cc1CN1C(=O)O[C@H](c2cc(C(F)(F)F)cc(C(F)(F)F)c2)[C@@H]1C [Anacetrapib (MK-0859)] | 0.63 | 0.80 | 0.46 | – |
| CC(C)(C#N)c1cc(Cn2cncn2)cc(C(C)(C)C#N)c1 [Anastrozole] | – | – | – | fold induction at 2.5 µM [3]: 0.94; fold induction at 2.5 µM [4]: 0.45; fold induction at 2.5 µM [5]: 1.42 |
